Square brackets hold non-standard residues; d marks the D form. Ends that are not written are not given here. Peptide text beside a SMILES is read from it. Nle = CCCC[C@H](N)C(=O)O
Assays:
A172 Cells = assay: PrestoBlue cell viability assay; type: cell-based; conditions: human, 10 μM
Method: The effect of the peptides on cell viability can be assessed in cultured cells using suitable assay of viability such as the PrestoBlue® assay (Thermo Fisher Scientific, Waltham, MA). Peptides were initially prepared as 10 mM stock in DMSO and tested at a final concentration of 10 μM (0.1% DMSO). […] PrestoBlue Assay Reagent was purchased from Thermo Fisher Scientific. A172 human brain glioblastoma cell line was purchased from American Type Culture Collection (Manassas, VA). A172 cells were grown in DMEM supplemented with 10% FBS with 100 IU/ml penicillin and 100 μg/ml streptomycin. Cultures were maintained at 37° C. in a humidified atmosphere of 5% CO2/95% air. A172 cells were seeded at 8,000 cells per well on 96-well plates. […] Cell viability was determined using a PrestoBlue Assay reagent […] according to the manufacturer's instructions. Absorption for each sample well on the plate was measured using a Cytation 3 plate reader at 560 nm and 590 nm (BioTek, Winooski, VT). Activity was calculated relative to 0.1% DMSO untreated control. Treatment with 0.1% DMSO alone was used as the cell viability activity control. The relative standard deviation of the DMSO control was <5%.

3T3-L1 Mouse Adipocytes = assay: Free fatty acid levels in cultured mouse adipocytes stimulated with isoproterenol; type: cell-based; conditions: peptide 10 μM, 20-22 hours then 3 hours with 1 nM isoproterenol; relative to isoproterenol treated cells
Method: The effect of the peptides on fatty acid metabolism can be assessed using an assay of free fatty acid levels in cultured cells such as mouse adipocytes. Peptides were initially prepared as 10 mM stock in DMSO and used at a final concentration of 10 μM (0.1% DMSO). […] Mouse 3T3-L1 cells purchased from ZenBio were seeded at 3,000 cells per well in 96-well plates in Pre-adipocyte Medium (Zen-Bio) and grown to confluence at 37° C. in a humidified atmosphere of 5% CO2/95% air. Two days after confluence, cells were placed in Adipocyte Differentiation Medium (Zen-Bio) and cultured for three additional days at 37° C. in a humidified atmosphere of 5% CO2/95% air. The culture media was then replaced with Adipocyte Maintenance Medium (Zen-Bio) and the cells maintained for an additional 9-12 days at 37° C. in a humidified atmosphere of 5% CO2/95% air with partial medium replacement every other day. Following 12-15 days of differentiation, test peptides were added at a final concentration of 10 μM in 0.1% DMSO and incubated for 20-22 hours in Adipocyte Maintenance Medium at 37° C. in a humidified atmosphere of 5% CO2/95% air. After 20-22 hours, 1 nM isoproterenol was added to all wells except untreated controls and test peptides were replenished. Insulin at 100 nM was added to control wells. Cells were incubated for 3 hours in Assay Buffer (Zen-Bio) at 37° C. in a humidified atmosphere of 5% CO2/95% air. Free fatty acid concentrations in the media were determined using a Free Fatty Acid Assay kit (Zen-Bio) according to the manufacturer's instructions using a Cytation 3 plate reader at 540 nm (BioTek, Winooski, VT). Absorbance values were corrected for untreated background and expressed relative to isoproterenol treated cells. Treatment with isoproterenol (1 nM) alone was used as the free fatty acid level stimulatory control. The relative standard deviation of the isoproterenol control was <10%. […] Free fatty acid levels for insulin (100 nM) treatment were <5% of the isoproterenol control value.

[1] = system: SH-SY5Y Neuroblastoma Cells; assay: ATP levels (CellTiter-Glo); type: cell-based, human; conditions: peptide 10 μM, 18-20 hours, relative to 0.1% DMSO treated control
Method: The effect of the peptides on cellular metabolism can be assessed using an assay of ATP levels in cultured cells such as human neuroblastoma cells. Peptides were initially prepared as 10 mM stock in DMSO and used at a final concentration of 10 μM (0.1% DMSO). […] CellTiter-Glo® Assay kit was purchased from Promega. SH-SY5Y human bone marrow neuroblastoma cell line was purchased from American Type Culture Collection (Manassas, VA) and licensed from Memorial Sloan-Kettering Cancer Center (New York, NY). SH-SY5Y cells were grown in DMEM/F12 medium supplemented with 10% FBS with 100 IU/ml penicillin and 100 μg/ml streptomycin. Cultures were maintained at 37° C. in a humidified atmosphere of 5% CO2/95% air. SH-SY5Y cells were seeded at 30,000 cells per well on 96-well plates. […] ATP levels were determined using a CellTiter-Glo Assay kit (Promega) according to the manufacturer's instructions. Luminescence for each sample well on the plate was measured using a Cytation 3 plate reader (BioTek, Winooski, VT). Activity was calculated relative to 0.1% DMSO treated control. The relative standard deviation of the result for the 0.1% DMSO treated control was <5%.

[2] = system: SH-SY5Y Neuroblastoma Cells Exposed to Staurosporine; assay: ATP levels in cells exposed to staurosporine (CellTiter-Glo); type: cell-based, human; conditions: peptide 10 μM plus staurosporine (40 μM), 18-20 hours; <100% cytoprotective, >100% synergistic
Method: Peptides were initially prepared as 10 mM stock in DMSO and tested at a final concentration of 10 μM (0.1% DMSO). […] […] CellTiter-Glo® Assay kit was purchased from Promega. SH-SY5Y human neuroblastoma cell line was purchased from American Type Culture Collection (Manassas, VA) and licensed from Memorial Sloan-Kettering Cancer Center (New York, NY). SH-SY5Y cells were grown in DMEM/F12 medium supplemented with 10% FBS with 100 IU/ml penicillin and 100 μg/ml streptomycin. Cultures were maintained at 37° C. in a humidified atmosphere of 5% CO2/95% air. SH-SY5Y cells were seeded at 30,000 cells per well on 96-well plates. […] ATP levels were determined using a CellTiter-Glo Assay kit (Promega) according to the manufacturer's instructions. Luminescence for each sample well on the plate was measured using a Cytation 3 plate reader (BioTek, Winooski, VT). […] A value less than 100% is indicative of a cytoprotective effect, while a value greater than 100% is indicative of a synergistic effect on viability.

CC[C@H](C)[C@H](NC(=O)[C@@H](NC(=O)[C@H](Cc1c[nH]cn1)NC(=O)[C@H](CCCNC(=N)N)NC(=O)[C@H](CC(=O)O)NC(=O)[C@H](Cc1ccc(O)cc1)NC(=O)[C@H](CC(C)C)NC(=O)[C@H](CC(C)C)NC(=O)[C@@H](NC(=O)[C@@H](N)Cc1c[nH]c2ccccc12)C(C)C)C(C)C)C(=O)NCC(=O)NCC(=O)N[C@@H](CO)C(=O)N[C@@H](CC(C)C)C(=O)N[C@@H](CS)C(=O)N[C@H](C(=O)N[C@H](C(=O)N[C@H](C(=O)N[C@@H](CCC(N)=O)C(=O)N[C@H](C(=O)N[C@@H](CCC(=O)O)C(=O)N[C@H](C)C(=O)N[C@@H](Cc1ccc(O)cc1)C(=O)O)C(C)C)C(C)C)C(C)C)C(C)C [compound 23] (H-WVLLYDRHVIGGSLCVVVQVE[dA]Y-OH; N-terminus and C-terminus assumed)
PrestoBlue cell viability, Percent of Control Activity (A172 Cells): 97.1% | Free Fatty Acid Levels, MEAN %ISO (3T3-L1 Mouse Adipocytes): 77.1% | ATP Levels, % Control [1]: 105.9% | Percent of ATP Reduction Induced by Control [2]: 69.6%

CC[C@H](C)[C@H](NC(=O)[C@@H](NC(=O)CNC(=O)[C@@H](C)NC(=O)[C@@H](N)CCSC)C(C)C)C(=O)N[C@@H](CCCNC(=N)N)C(=O)NCC(=O)N[C@H](C(=O)N[C@@H](CC(C)C)C(=O)N[C@H](C(=O)N[C@@H](CC(C)C)C(=O)O)C(C)C)C(C)C [compound 9] (H-M[dA]GVIRGVLVL-OH; N-terminus and C-terminus assumed)
PrestoBlue cell viability, Percent of Control Activity (A172 Cells): 94.8% | Free Fatty Acid Levels, MEAN %ISO (3T3-L1 Mouse Adipocytes): 88.2% | ATP Levels, % Control [1]: 105.9% | Percent of ATP Reduction Induced by Control [2]: 95.1%

MRRRMFSCYLY [compound 17]
PrestoBlue cell viability, Percent of Control Activity (A172 Cells): 100.6% | Free Fatty Acid Levels, MEAN %ISO (3T3-L1 Mouse Adipocytes): 46.1% | ATP Levels, % Control [1]: 104.6% | Percent of ATP Reduction Induced by Control [2]: 94.2%

MAGVIRGVLVL [compound 8]
PrestoBlue cell viability, Percent of Control Activity (A172 Cells): 92.0% | Free Fatty Acid Levels, MEAN %ISO (3T3-L1 Mouse Adipocytes): 76.9% | ATP Levels, % Control [1]: 101.1% | Percent of ATP Reduction Induced by Control [2]: 92.6%

MMAGVIRGVLVL [compound 7]
PrestoBlue cell viability, Percent of Control Activity (A172 Cells): 86.2% | Free Fatty Acid Levels, MEAN %ISO (3T3-L1 Mouse Adipocytes): 66.4% | ATP Levels, % Control [1]: 103.9% | Percent of ATP Reduction Induced by Control [2]: 103.3%

CC[C@H](C)[C@H](NC(=O)[C@@H](NC(=O)CNC(=O)[C@@H](C)NC(=O)[C@@H](N)CCSC)C(C)C)C(=O)N[C@@H](CCCNC(=N)N)C(=O)N[C@@H](C)C(=O)N[C@H](C(=O)N[C@@H](CC(C)C)C(=O)N[C@H](C(=O)N[C@@H](CC(C)C)C(=O)O)C(C)C)C(C)C [compound 10] (H-M[dA]GVIRAVLVL-OH; N-terminus and C-terminus assumed)
PrestoBlue cell viability, Percent of Control Activity (A172 Cells): 99.6% | Free Fatty Acid Levels, MEAN %ISO (3T3-L1 Mouse Adipocytes): 96.4% | ATP Levels, % Control [1]: 103.2% | Percent of ATP Reduction Induced by Control [2]: 90.4%

CCCC[C@H](NC(=O)[C@H](CCCNC(=N)N)NC(=O)[C@H](CCCNC(=N)N)NC(=O)[C@@H](N)CCCNC(=N)N)C(=O)N[C@@H](Cc1ccccc1)C(=O)N[C@@H](CO)C(=O)N[C@@H](CS)C(=O)N[C@@H](Cc1ccc(O)cc1)C(=O)N[C@H](C)C(=O)N[C@@H](Cc1ccc(O)cc1)C(=O)O [compound 20] (H-RRR[Nle]FSCY[dA]Y-OH; N-terminus and C-terminus assumed)
PrestoBlue cell viability, Percent of Control Activity (A172 Cells): 104.7% | Free Fatty Acid Levels, MEAN %ISO (3T3-L1 Mouse Adipocytes): 65.6% | ATP Levels, % Control [1]: 106.9% | Percent of ATP Reduction Induced by Control [2]: 101.4%

CC[C@H](C)[C@H](NC(=O)[C@H](CC(C)C)NC(=O)[C@H](CC(C)C)NC(=O)[C@@H](N)CCSC)C(=O)N[C@@H](CC(C)C)C(=O)N[C@H](C(=O)N[C@@H](CC(C)C)C(=O)N[C@H](C(=O)N[C@@H](CC(C)C)C(=O)N[C@H](C)C(=O)O)C(C)C)[C@@H](C)O [compound 3] (H-MLLILTLVL[dA]-OH; N-terminus and C-terminus assumed)
PrestoBlue cell viability, Percent of Control Activity (A172 Cells): 96.5% | Free Fatty Acid Levels, MEAN %ISO (3T3-L1 Mouse Adipocytes): 57.7% | ATP Levels, % Control [1]: 104.8% | Percent of ATP Reduction Induced by Control [2]: 102.7%

RQWILHNGGMSFFC [compound 13]
PrestoBlue cell viability, Percent of Control Activity (A172 Cells): 99.1% | Free Fatty Acid Levels, MEAN %ISO (3T3-L1 Mouse Adipocytes): 74.0% | ATP Levels, % Control [1]: 101.2% | Percent of ATP Reduction Induced by Control [2]: 103.8%

MRQWILHNGGMSFFC [compound 12]
PrestoBlue cell viability, Percent of Control Activity (A172 Cells): 100.5% | Free Fatty Acid Levels, MEAN %ISO (3T3-L1 Mouse Adipocytes): 67.1% | ATP Levels, % Control [1]: 101.0% | Percent of ATP Reduction Induced by Control [2]: 98.0%

RRRMFSCYLY [compound 18]
PrestoBlue cell viability, Percent of Control Activity (A172 Cells): 100.9% | Free Fatty Acid Levels, MEAN %ISO (3T3-L1 Mouse Adipocytes): 58.5% | ATP Levels, % Control [1]: 108.6% | Percent of ATP Reduction Induced by Control [2]: 96.1%

MLLILTLVLL [compound 2]
PrestoBlue cell viability, Percent of Control Activity (A172 Cells): 94.4% | Free Fatty Acid Levels, MEAN %ISO (3T3-L1 Mouse Adipocytes): 80.7% | ATP Levels, % Control [1]: 99.9% | Percent of ATP Reduction Induced by Control [2]: 91.6%

CSCC[C@H](NC(=O)CNC(=O)[C@@H](C)NC(=O)[C@H](CC(N)=O)NC(=O)[C@H](Cc1c[nH]cn1)NC(=O)[C@H](CC(C)C)NC(=O)[C@H](CCC(=O)O)NC(=O)[C@H](Cc1c[nH]c2ccccc12)NC(=O)[C@H](CCC(N)=O)NC(=O)[C@@H](N)CCCNC(=N)N)C(=O)N[C@@H](CO)C(=O)N[C@@H](C)C(=O)N[C@@H](Cc1ccccc1)C(=O)N[C@@H](CS)C(=O)O [compound 15] (H-RQWELHN[dA]GMSAFC-OH; N-terminus and C-terminus assumed)
PrestoBlue cell viability, Percent of Control Activity (A172 Cells): 98.8% | Free Fatty Acid Levels, MEAN %ISO (3T3-L1 Mouse Adipocytes): 54.5% | ATP Levels, % Control [1]: 101.8% | Percent of ATP Reduction Induced by Control [2]: 88.4%

Source: US20240034753A1, “THERAPEUTIC PEPTIDES” (COHBAR, INC., priority 2020, published 2024)
